Consider 17 compounds from patent US20240116910A1, “Heterocycles as WIP1 Inhibitors” (PMV Pharmaceuticals, Inc., priority 2022, published 2024).

SMILES strings stand for the structures.

One may read the IC50 as the point on the concentration scale where inhibition reaches its midpoint.

In test [1] the target is recombinant His-tag Wip1 full length protein (amino acids #1-605) (Homo sapiens (Human), UniProt O15297). Description: Wip1 full length phosphatase enzyme FDP assay. It is filed as biochemical. The settings on record: fluorescein diphosphate (FDP) substrate, RT 2 hours, fluorescence Ex485/Em535. The method, then: The Human Wip1 (2-420, aa 2-420) or Wip1 full length (aa 1-605) DNA sequence was codon optimized and synthesized by Genscript for insect cell expression. The open reading frame of Wip1(2-420) with a N-terminal-His6 affinity tag followed by a TEV cleavage site was subcloned sites into the pFastBac1 expression vector. The recombinant bacmid DNA was transfected in Sf9 insect cells for baculovirus production. After 72 hours infection, the Sf9 cells were harvested by centrifugation and resuspended in lysis buffer containing 50 mM Tris/HCl, pH 8.0, 500 mM NaCl, 20% glycerol, Benzonase 0.5% CHAPS and Roche cOmplete™ EDTA free protease inhibitors. Cells were disrupted with microfluidizer and the debris was removed by centrifugation at 185,000 g for 1 hour. The supernatant was subjected to HisTrap FF for affinity purification. Proteins were eluted with a linear gradient of 0-500 mM imidazole in HisTrap buffer containing 50 mM Tris/HCl, pH 8.0, 500 mM NaCl and 20% glycerol, 0.05% CHAPS. The eluted protein was dialyzed against dialysis buffer (20 mM MES, 100 mM NaCl, 20% glycerol, 0.5 mM TCEP, 0.05% CHAPS) followed purification via HiTrap SP HP column. The protein was eluted with a gradient of 100 mM-2 M NaCl in dialysis buffer. His6-[…] was finally concentrated and loaded onto a size-exclusion column (NiLoad 16/600 Superdex 200 pg, GE Healthcare) pre-equilibrated with 50 mM MOPS (pH 7.5), 200 mM NaCl, 20% glycerol, 1 mM TCEP, 0.05% CHAPS and 0.1 mM EGTA. The peak fractions containing purified Nis6-Wip1(2-420) were pooled and concentrated to 1.0 mg/mL and flash frozen at −80° C.
Chain of recombinant His-tag Wip1 full length protein (amino acids #1-605) (O15297 whole entry, the tested form may be a part): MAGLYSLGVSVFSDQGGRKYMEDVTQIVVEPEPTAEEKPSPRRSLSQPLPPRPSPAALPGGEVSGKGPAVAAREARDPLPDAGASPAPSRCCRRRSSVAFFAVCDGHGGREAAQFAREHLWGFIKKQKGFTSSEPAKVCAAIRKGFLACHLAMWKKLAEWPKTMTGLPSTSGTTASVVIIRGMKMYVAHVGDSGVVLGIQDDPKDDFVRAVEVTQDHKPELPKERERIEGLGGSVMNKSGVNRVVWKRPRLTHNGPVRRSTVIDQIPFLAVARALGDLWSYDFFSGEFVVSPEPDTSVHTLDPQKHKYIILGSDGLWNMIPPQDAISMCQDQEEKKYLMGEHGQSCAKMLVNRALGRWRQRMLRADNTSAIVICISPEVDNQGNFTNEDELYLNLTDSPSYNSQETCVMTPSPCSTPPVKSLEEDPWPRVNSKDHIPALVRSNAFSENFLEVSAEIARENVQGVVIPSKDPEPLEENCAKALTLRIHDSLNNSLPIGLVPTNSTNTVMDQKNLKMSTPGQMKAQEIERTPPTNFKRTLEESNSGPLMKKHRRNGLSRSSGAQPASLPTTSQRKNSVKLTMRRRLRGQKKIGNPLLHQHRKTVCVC
Wip1 Length and Wip1(2-420) Phosphatase Enzyme FDP Assays.
Test compounds (252 mM stock in DMSO) were diluted 3 folds in series in DMSO and 1.2 μl per well were added into 384-well polypropylene black plates (Nunc). Twelve μl per well of Assay Buffer (100 mM NaCl, 50 mM MOPS, pH 7.5, 0.8 mM CHAPS, 0.1 mM EGTA, 30 mM MgCl2, 0.3 mM TCEP, 0.2 mg/mL BSA) was added followed by […] per well of 50.4 nM recombinant His-tag Wip1 full length protein (amino acids #1-605) or recombinant His-tag Wip1(2-420) protein (amino acids #2-420) in Assay Buffer and the plate was incubated at RT (22° C.) for 5 min. Ten mM of fluorescein diphosphate (FDP) in DMSO was diluted to […] in Assay Buffer and […] per well was added to the plate and incubated at RT (22° C.) for 2 hours. […] per well of 64.1 mM EDTA in water were added to stop the enzyme reaction. The plate was centrifuged at 1,200 rpm (Eppendorf 5810R Plate centrifuge) for 1 minute and fluorescence intensity (Ex485/Em535) was measured on Perkin Elmer Victor Reader. EC50 values were calculated using either Prism (GraphPad) or ActivityBase software (IDBS), The IC50 results are provided in Table M.

Test [2] addresses recombinant His-tag Wip1(2-420) protein (amino acids #2-420) (Homo sapiens (Human), UniProt O15297). Put plainly: Wip1(2-420) phosphatase enzyme FDP assay. It is filed as biochemical. The note with it: fluorescein diphosphate (FDP) substrate, RT 2 hours, fluorescence Ex485/Em535; read-out: WIP1 (Truncated 2-420) FDP Assay: IC50.

Chain of recombinant His-tag Wip1(2-420) protein (amino acids #2-420) (O15297 2-420): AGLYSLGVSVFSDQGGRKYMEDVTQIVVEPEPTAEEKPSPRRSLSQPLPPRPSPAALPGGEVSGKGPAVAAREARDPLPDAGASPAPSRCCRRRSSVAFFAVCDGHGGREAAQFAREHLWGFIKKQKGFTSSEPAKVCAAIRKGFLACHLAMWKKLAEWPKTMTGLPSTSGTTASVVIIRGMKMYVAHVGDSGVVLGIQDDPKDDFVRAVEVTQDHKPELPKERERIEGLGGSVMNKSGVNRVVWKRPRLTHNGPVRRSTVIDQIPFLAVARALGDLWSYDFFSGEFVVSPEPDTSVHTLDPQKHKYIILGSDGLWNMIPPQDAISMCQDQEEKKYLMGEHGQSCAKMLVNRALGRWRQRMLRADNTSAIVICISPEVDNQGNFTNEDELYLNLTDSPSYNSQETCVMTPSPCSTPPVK

Turning to `Cc1ncc(Cl)cc1N[C@@H](C)c1ccc(C(=O)N[C@@H](CC2CCCC2)C(=O)N[C@H]2C[C@H](F)C2)s1` [Compound 29, (2S)-2-({5-[(1S)-1-[(5-chloro-2-methylpyridin-3-yl)amino]ethyl]thiophen-2-yl}formamido)-3-cyclopentyl-N-[(1r,3r)-3-fluorocyclobutyl]propanamide], the half-inhibitory concentration (IC50) in test [1] amounted to 7 nM; in test [2] it was 3 nM.

As for `Cc1ncc(Cl)cc1N[C@H](C)c1ccc(C(=O)N[C@@H](CC2CCCC2)C(=O)NC2CC2(F)F)s1` (stereo partly drawn) [Compound 15, (2S)-2-({5-[(1R)-1-[(5-chloro-2-methylpyridin-3-yl)amino]ethyl]thiophen-2-yl}formamido)-3-cyclopentyl-N-(2,2-difluorocyclopropyl)propanamide], the IC50 in test [1] was determined as 71 nM; in test [2], 80 nM.

Regarding `Cc1ccc(NC(=O)[C@H](CC2CCCC2)NC(=O)c2ccc([C@H](C)Nc3cc(Cl)cnc3C)s2)cn1` [Compound 53, (2S)-2-({5-[(1S)-1-[(5-chloro-2-methylpyridin-3-yl)amino]ethyl]thiophen-2-yl}formamido)-3-cyclopentyl-N-(6-methylpyridin-3-yl)propanamide], the values for the half-maximal inhibitory concentration (IC50) in test [1] and in test [2] were 8 nM and 5 nM, respectively.

On to `Cc1ncc(Cl)cc1N[C@@H](C)c1ccc(C(=O)N[C@@H](CC2CCCC2)C(=O)N[C@H]2CC2(F)F)s1` [Compound 23, (2S)-2-({5-[(1S)-1-[(5-chloro-2-methylpyridin-3-yl)amino]ethyl]thiophen-2-yl}formamido)-3-cyclopentyl-N-[(1S)-2,2-difluorocyclopropyl]propanamide], for which the IC50 amounted to 8 nM in test [1] and 5 nM in test [2].

`C[C@@H](Nc1ccc(F)c(Cl)c1)c1ccc(C(=O)N[C@@H](CC2CCCC2)C(=O)NC2CC2)s1` [Compound 7, 5-[(1R)-1-(3-chloro-4-fluoro-anilino)ethyl]-N-[(1S)-1-(cyclopentylmethyl)-2-(cyclopropylamino)-2-oxo-ethyl]thiophene-2-carboxamide]: the concentration for half-maximal inhibition (IC50) in test [1] was 68 nM; in test [2], 80 nM.

As for `Cc1ncc(Cl)cc1N[C@@H](Cc1cnn(C)c1)c1ccc(C(=O)N[C@@H](CC2CCCC2)C(=O)NC2CC2)s1` [Compound 171, (2S)-2-({5-[(1S)-1-[(5-chloro-2-methylpyridin-3-yl)amino]-2-(1-methyl-1H-pyrazol-4-yl)ethyl]thiophen-2-yl}formamido)-3-cyclopentyl-N-cyclopropylpropanamide], the half-inhibitory concentration (IC50) was 10 nM in test [1] and 7 nM in test [2].

`Cc1ncc(Cl)cc1N[C@@H](C)c1ccc(C(=O)N[C@@H](CC23CC(C2)C3)C(=O)NC2CC2)s1` [Compound 72, (2S)-3-{bicyclo[1.1.1]pentan-1-yl}-2-({5-[(1S)-1-[(5-chloro-2-methylpyridin-3-yl)amino]ethyl]thiophen-2-yl}formamido)-N-cyclopropylpropanamide]: the concentration for half-maximal inhibition (IC50) in test [1] amounted to 136 nM; in test [2] it was 103 nM.

Turning to `CCc1ncc(Cl)cc1N[C@@H](C)c1ccc(C(=O)N[C@@H](CC2CCCC2)C(=O)NC2CC2)s1` [Compound 78, (2S)-2-({5-[(1S)-1-[(5-chloro-2-ethylpyridin-3-yl)amino]ethyl]thiophen-2-yl}formamido)-3-cyclopentyl-N-cyclopropylpropanamide], the IC50 in test [1] is 7 nM; in test [2], 6 nM.

As for `CNC(=O)[C@H](CC1CCCC1)NC(=O)c1ccc([C@H](C)Nc2cc(Cl)cnc2C)s1` [Compound 74, (2S)-2-({5-[(1S)-1-[(5-chloro-2-methylpyridin-3-yl)amino]ethyl]thiophen-2-yl}formamido)-3-cyclopentyl-N-methylpropanamide], the IC50 in test [1] worked out at 27 nM; in test [2], 21 nM.

As to `O=C(N[C@@H](CC1CCCCC1)C(=O)NC1CC1)c1cnc(CN2CCc3ccc(C(F)(F)F)cc32)s1` [Compound 306, N-[(1S)-1-(cyclohexylmethyl)-2-(cyclopropylamino)-2-oxo-ethyl]-2-[[6-(trifluoromethyl)indolin-1-yl]methyl]thiazole-5-carboxamide], the IC50 turned out to be 38 nM in test [1] and 83 nM in test [2].

For the compound `CCn1cc(NC(=O)[C@H](CC2CCCC2)NC(=O)c2ccc([C@H](C)Nc3cc(Cl)cnc3C)s2)cn1` [Compound 162, (2S)-2-({5-[(1S)-1-[(5-chloro-2-methylpyridin-3-yl)amino]ethyl]thiophen-2-yl}formamido)-3-cyclopentyl-N-(1-ethyl-1H-pyrazol-4-yl)propanamide], the IC50 was determined as 8 nM in test [1] and 6 nM in test [2].

Take `Cc1ncc(Cl)cc1N[C@@H](C)c1ccc(C(=O)N[C@@H](CC2CCCC2)C(=O)N[C@H]2C[C@@H](F)C2)s1` [Compound 28, (2S)-2-({5-[(1S)-1-[(5-chloro-2-methylpyridin-3-yl)amino]ethyl]thiophen-2-yl}formamido)-3-cyclopentyl-N-[(1s,3s)-3-fluorocyclobutyl]propanamide]: the IC50 came to 7 nM in test [1] and 4 nM in test [2].

Regarding `C[C@H](Nc1ccc(F)c(Cl)c1)c1ccc(C(=O)N[C@@H](CC2CCCC2)C(=O)NC2CC2)s1` [Compound 6, 5-[(1S)-1-(3-chloro-4-fluoro-anilino)ethyl]-N-[(1S)-1-(cyclopentylmethyl)-2-(cyclopropylamino)-2-oxo-ethyl]thiophene-2-carboxamide], the IC50 in test [1] was 9 nM; in test [2], 6 nM.

For `Cc1ncc(Cl)cc1N[C@@H](C)c1ccc(C(=O)N[C@@H](CCC(C)(C)C)C(=O)Nc2cnn(C)c2)s1` [Compound 160, (2S)-2-({5-[(1S)-1-[(5-chloro-2-methylpyridin-3-yl)amino]ethyl]thiophen-2-yl}formamido)-5,5-dimethyl-N-(1-methyl-1H-pyrazol-4-yl)hexanamide], the results for the IC50 in test [1] and in test [2] were 13 nM and 9 nM, respectively.

In the case of `Cc1ncc(Cl)cc1N[C@@H](C)c1ccc(C(=O)N[C@@H](CC2CCCC2)C(=O)Nc2cnn(C3CCOCC3)c2)s1` [Compound 163, (2S)-2-({5-[(1S)-1-[(5-chloro-2-methylpyridin-3-yl)amino]ethyl]thiophen-2-yl}formamido)-3-cyclopentyl-N-[1-(oxan-4-yl)-1H-pyrazol-4-yl]propanamide], the 50% inhibitory concentration (IC50) was found to be 8 nM in test [1] and 5 nM in test [2].

For `CNC(=O)C12CC(NC(=O)[C@H](CC3CCCC3)NC(=O)c3ccc([C@H](C)Nc4cc(Cl)cnc4C)s3)(C1)C2` [Compound 44, 3-[(2S)-2-({5-[(1S)-1-[(5-chloro-2-methylpyridin-3-yl)amino]ethyl]thiophen-2-yl}formamido)-3-cyclopentylpropanamido]-N-methylbicyclo[1.1.1]pentane-1-carboxamide], the IC50 in test [1] turned out to be 14 nM; in test [2], 12 nM.

With `CC[C@H](Nc1cc(Cl)cnc1C)c1ccc(C(=O)N[C@@H](CC2CCCC2)C(=O)N[C@@H]2CC2(F)F)s1` [Compound 47, (2S)-2-({5-[(1S)-1-[(5-chloro-2-methylpyridin-3-yl)amino]propyl]thiophen-2-yl}formamido)-3-cyclopentyl-N-[(1R)-2,2-difluorocyclopropyl]propanamide], the IC50 in test [1] and in test [2] was 11 nM throughout.
